Test results published in patent US12606561B2, “Substituted pyrazolo[1,5-a][1,3,5]triazines as CDK inhibitors” (QURIENT CO., LTD., priority 2018, dated 2026).

Assays:
[1] = target: T1, CDK5/p25 (Homo sapiens, UniProt Q00535); assay: Enzymatic assay for CDK5 (LANCE Ultra kinase assay, FRET based); assay type: biochemical; conditions: ATP at Km
T1 construct: purchased Invitrogen PR8543B
Outline: (§1)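 Compounds tested as 8 doses in 4-fold steps against CDK2/Cyclin A ([…]) or CDK5/p25 ([…]), with ATP at its Km and 68 nM ULight-MBP substrate. After 60 min at 23° C., EDTA plus Eu-labelled anti-phospho-MBP added; TR-FRET (615/665 nm) read after another 60 min.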

[2] = test system: OVCAR-3; assay: OVCAR-3 viability assay (CellTiter-Glo, 72 hours); assay type: cell-based; conditions: Homo sapiens; OVCAR-3 cells
Outline: (§2)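 CellTiter-Glo luminescence read-out after 72 h compound exposure at 37° C, 5% CO2, duplicates. Seeding densities: MV4-11 1×10^4 cells/well, OVCAR-3 5×10^3, A2780 1×10^3. Dose range 0.0015 uM to 10 uM, added 24 h post-plating; DMSO control, final <0.1%.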

[3] = target: T2, CDK1/Cyclin B (Homo sapiens, UniProt P06493); assay: Enzymatic assay for CDK1 (LANCE Ultra kinase assay, FRET based); assay type: biochemical; conditions: ATP at Km; read-out: CDK1 enzymatic activity IC50
T2 construct: purchased Invitrogen PR4768C
T2 sequence (P06493 whole entry): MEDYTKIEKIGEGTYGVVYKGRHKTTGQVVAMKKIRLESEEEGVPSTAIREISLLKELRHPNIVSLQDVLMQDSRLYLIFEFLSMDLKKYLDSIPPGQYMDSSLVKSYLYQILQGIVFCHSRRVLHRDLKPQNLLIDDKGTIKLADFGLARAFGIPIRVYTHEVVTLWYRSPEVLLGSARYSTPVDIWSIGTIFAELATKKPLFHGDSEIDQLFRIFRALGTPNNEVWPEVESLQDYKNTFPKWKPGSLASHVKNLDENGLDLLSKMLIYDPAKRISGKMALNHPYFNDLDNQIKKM
T2 sequence (P14635 whole entry partner): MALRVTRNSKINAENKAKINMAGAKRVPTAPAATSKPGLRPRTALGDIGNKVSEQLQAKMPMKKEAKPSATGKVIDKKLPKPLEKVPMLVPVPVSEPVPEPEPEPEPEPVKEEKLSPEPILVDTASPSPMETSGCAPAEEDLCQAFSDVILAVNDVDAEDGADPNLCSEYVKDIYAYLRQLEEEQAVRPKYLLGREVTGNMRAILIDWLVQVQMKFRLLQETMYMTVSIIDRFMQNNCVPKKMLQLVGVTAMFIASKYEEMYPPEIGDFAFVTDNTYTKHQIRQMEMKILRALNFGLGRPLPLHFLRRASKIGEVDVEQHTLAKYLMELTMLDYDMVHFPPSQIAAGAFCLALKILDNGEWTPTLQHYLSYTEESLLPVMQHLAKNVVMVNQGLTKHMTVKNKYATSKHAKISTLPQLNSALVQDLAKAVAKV
Outline: (§3)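 FRET read-out: Eu-labeled anti-phospho-antibody binding a phosphorylated ULight peptide. Purified CDK–cyclin complex, ATP at Km.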

[4] = target: T3, CDK7/Cyclin H/MNAT1 (Homo sapiens, UniProt P50613); assay: Enzymatic assay for CDK7 (LANCE Ultra kinase assay, FRET based); assay type: biochemical; conditions: for IC50: ATP at Km
T3 construct: purchased Invitrogen PR6749B
T3 sequence (P50613 whole entry): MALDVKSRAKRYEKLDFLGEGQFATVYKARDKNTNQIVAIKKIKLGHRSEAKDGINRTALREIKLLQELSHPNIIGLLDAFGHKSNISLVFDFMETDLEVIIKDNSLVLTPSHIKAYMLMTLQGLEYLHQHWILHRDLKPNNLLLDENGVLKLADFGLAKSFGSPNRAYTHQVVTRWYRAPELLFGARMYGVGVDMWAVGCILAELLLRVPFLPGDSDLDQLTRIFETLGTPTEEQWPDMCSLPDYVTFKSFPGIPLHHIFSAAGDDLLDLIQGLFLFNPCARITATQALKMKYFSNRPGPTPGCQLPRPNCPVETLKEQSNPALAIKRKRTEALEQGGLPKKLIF
T3 sequence (P51946 whole entry partner): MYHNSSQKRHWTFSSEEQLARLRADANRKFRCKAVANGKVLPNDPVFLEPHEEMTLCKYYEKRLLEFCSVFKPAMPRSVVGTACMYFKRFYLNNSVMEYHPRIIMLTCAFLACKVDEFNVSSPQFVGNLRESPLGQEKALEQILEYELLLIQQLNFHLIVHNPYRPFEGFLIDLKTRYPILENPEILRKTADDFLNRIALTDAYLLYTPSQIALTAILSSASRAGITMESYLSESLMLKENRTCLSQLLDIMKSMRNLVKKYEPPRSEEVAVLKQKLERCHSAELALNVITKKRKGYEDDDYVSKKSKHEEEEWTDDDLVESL
T3 sequence (P51948 whole entry partner): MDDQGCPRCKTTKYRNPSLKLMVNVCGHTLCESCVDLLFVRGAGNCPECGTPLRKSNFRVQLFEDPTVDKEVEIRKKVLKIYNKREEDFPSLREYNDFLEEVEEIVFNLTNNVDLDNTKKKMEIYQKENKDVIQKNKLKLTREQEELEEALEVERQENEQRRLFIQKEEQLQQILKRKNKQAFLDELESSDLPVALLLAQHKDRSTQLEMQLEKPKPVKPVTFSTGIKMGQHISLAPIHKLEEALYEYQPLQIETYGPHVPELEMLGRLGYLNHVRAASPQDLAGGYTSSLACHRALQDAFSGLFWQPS
Outline: as §3

[5] = test system: A2780; assay: A2780 viability assay (CellTiter-Glo, 72 hours); assay type: cell-based; conditions: Homo sapiens; A2780 cells
Outline: as §2

[6] = target: T4, CDK2/Cyclin A (Homo sapiens, UniProt P24941); assay: Enzymatic assay for CDK2 (LANCE Ultra kinase assay, FRET based); assay type: biochemical; conditions: ATP at Km
T4 construct: purchased Invitrogen PV6290
Outline: as §1

T1 sequence (Q00535 whole entry): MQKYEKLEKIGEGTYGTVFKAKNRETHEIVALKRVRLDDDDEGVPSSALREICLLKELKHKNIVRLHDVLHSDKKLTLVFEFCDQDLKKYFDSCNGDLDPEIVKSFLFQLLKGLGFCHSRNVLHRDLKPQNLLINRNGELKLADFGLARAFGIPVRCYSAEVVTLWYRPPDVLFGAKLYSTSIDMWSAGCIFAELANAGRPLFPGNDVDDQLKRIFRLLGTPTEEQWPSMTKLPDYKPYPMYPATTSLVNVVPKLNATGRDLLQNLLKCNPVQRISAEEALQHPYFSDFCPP
T1 sequence (Q15078 99-307 partner limits assumed): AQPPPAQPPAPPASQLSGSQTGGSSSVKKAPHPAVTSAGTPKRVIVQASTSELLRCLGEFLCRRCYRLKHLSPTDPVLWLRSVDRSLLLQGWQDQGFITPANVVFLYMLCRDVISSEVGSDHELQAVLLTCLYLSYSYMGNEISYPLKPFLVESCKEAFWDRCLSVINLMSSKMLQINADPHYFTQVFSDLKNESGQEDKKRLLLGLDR

CC(C)c1cnn2c(NCc3ccccc3-c3nccc4cc(NC(=O)/C=C/CN(C)C)ccc34)nc(N3CC4COCC4C3)nc12 (stereo not drawn) [Compound 104]
IC50 [1]: > 1000 nM | IC50 [2]: < 1000 nM | IC50 [3]: > 1000 nM | IC50 [4]: 100 to 1000 nM | CDK1/CDK7: Selectivity of CDK7 inhibition over CDK1 inhibition [4]: B (B indicates 50 < [fold] ≤ 500) | CDK2/CDK7: Selectivity of CDK7 inhibition over CDK2 inhibition [4]: B (B indicates 50 < [fold] ≤ 500) | CDK5/CDK7: Selectivity of CDK7 inhibition over CDK5 inhibition [4]: B (B indicates 50 < [fold] ≤ 500) | IC50 [5]: < 1000 nM | IC50 [6]: > 1000 nM

CC(C)c1cnn2c(NCc3ccccc3-c3nccc4cc(NC(=O)/C=C/CN(C)C)ccc34)nc(N3CCOC4(CCN(C)CC4)C3)nc12 [Compound 120]
IC50 [1]: > 1000 nM | IC50 [2]: < 1000 nM | IC50 [3]: > 1000 nM | IC50 [4]: < 100 nM | CDK1/CDK7: Selectivity of CDK7 inhibition over CDK1 inhibition [4]: A (A indicates [fold] > 500) | CDK2/CDK7: Selectivity of CDK7 inhibition over CDK2 inhibition [4]: A (A indicates [fold] > 500) | CDK5/CDK7: Selectivity of CDK7 inhibition over CDK5 inhibition [4]: A (A indicates [fold] > 500) | IC50 [5]: < 1000 nM | IC50 [6]: > 1000 nM

CC(C)c1cnn2c(NCc3ccccc3-c3nccc4cc(NC(=O)/C=C/CN(C)C)ccc34)nc(NC[C@H]3CNC[C@@H]3O)nc12 [Compound 109]
IC50 [1]: > 1000 nM | IC50 [2]: 1000 to 10000 nM | IC50 [3]: > 1000 nM | IC50 [4]: < 100 nM | CDK1/CDK7: Selectivity of CDK7 inhibition over CDK1 inhibition [4]: A (A indicates [fold] > 500) | CDK2/CDK7: Selectivity of CDK7 inhibition over CDK2 inhibition [4]: A (A indicates [fold] > 500) | CDK5/CDK7: Selectivity of CDK7 inhibition over CDK5 inhibition [4]: A (A indicates [fold] > 500) | IC50 [5]: 1000 to 10000 nM | IC50 [6]: > 1000 nM

C=C(F)C(=O)Nc1ccc2c(-c3ccccc3CNc3nc(N4CCC(OC)CC4)nc4c(C(C)C)cnn34)nccc2c1 [Compound 88]
IC50 [1]: > 1000 nM | IC50 [2]: < 1000 nM | IC50 [3]: > 1000 nM | IC50 [4]: 100 to 1000 nM | CDK1/CDK7: Selectivity of CDK7 inhibition over CDK1 inhibition [4]: B (B indicates 50 < [fold] ≤ 500) | CDK2/CDK7: Selectivity of CDK7 inhibition over CDK2 inhibition [4]: B (B indicates 50 < [fold] ≤ 500) | CDK5/CDK7: Selectivity of CDK7 inhibition over CDK5 inhibition [4]: B (B indicates 50 < [fold] ≤ 500) | IC50 [5]: < 1000 nM | IC50 [6]: > 1000 nM

C=C(F)C(=O)Nc1ccc2c(-c3ccccc3CNc3nc(NC4CCC(C)(C)NC4)nc4c(C(C)C)cnn34)nccc2c1 (stereo not drawn) [Compound 175]
IC50 [1]: > 1000 nM | IC50 [2]: < 1000 nM | IC50 [3]: > 1000 nM | IC50 [4]: < 100 nM | CDK1/CDK7: Selectivity of CDK7 inhibition over CDK1 inhibition [4]: A (A indicates [fold] > 500) | CDK2/CDK7: Selectivity of CDK7 inhibition over CDK2 inhibition [4]: A (A indicates [fold] > 500) | CDK5/CDK7: Selectivity of CDK7 inhibition over CDK5 inhibition [4]: A (A indicates [fold] > 500) | IC50 [5]: < 1000 nM | IC50 [6]: > 1000 nM

C=C(F)C(=O)Nc1ccc2c(-c3ccccc3CNc3nc(N[C@@H]4CCC(C)(C)NC4)nc4c(C(C)C)cnn34)nccc2c1 [Compound 174]
IC50 [1]: > 1000 nM | IC50 [2]: < 1000 nM | IC50 [3]: > 1000 nM | IC50 [4]: < 100 nM | CDK1/CDK7: Selectivity of CDK7 inhibition over CDK1 inhibition [4]: A (A indicates [fold] > 500) | CDK2/CDK7: Selectivity of CDK7 inhibition over CDK2 inhibition [4]: A (A indicates [fold] > 500) | CDK5/CDK7: Selectivity of CDK7 inhibition over CDK5 inhibition [4]: A (A indicates [fold] > 500) | IC50 [5]: < 1000 nM | IC50 [6]: > 1000 nM

CC(C)c1cnn2c(NCc3ccccc3-c3nccc4cc(NC(=O)/C=C/CN(C)C)ccc34)nc(N[C@@H]3CCCNC3)nc12 [Compound 150]
IC50 [1]: > 1000 nM | IC50 [2]: < 1000 nM | IC50 [3]: > 1000 nM | IC50 [4]: < 100 nM | CDK1/CDK7: Selectivity of CDK7 inhibition over CDK1 inhibition [4]: A (A indicates [fold] > 500) | CDK2/CDK7: Selectivity of CDK7 inhibition over CDK2 inhibition [4]: A (A indicates [fold] > 500) | CDK5/CDK7: Selectivity of CDK7 inhibition over CDK5 inhibition [4]: A (A indicates [fold] > 500) | IC50 [5]: < 1000 nM | IC50 [6]: > 1000 nM

C=CC(=O)Nc1ccc2c(-c3ccccc3CNc3cc(N4C5CCC4CC(OC)C5)nc4c(C(C)C)cnn34)nccc2c1 (stereo not drawn) [Compound 119]
IC50 [1]: > 1000 nM | IC50 [2]: < 1000 nM | IC50 [3]: > 1000 nM | IC50 [4]: 100 to 1000 nM | CDK1/CDK7: Selectivity of CDK7 inhibition over CDK1 inhibition [4]: B (B indicates 50 < [fold] ≤ 500) | CDK2/CDK7: Selectivity of CDK7 inhibition over CDK2 inhibition [4]: B (B indicates 50 < [fold] ≤ 500) | CDK5/CDK7: Selectivity of CDK7 inhibition over CDK5 inhibition [4]: B (B indicates 50 < [fold] ≤ 500) | IC50 [5]: < 1000 nM | IC50 [6]: > 1000 nM

C=C(F)C(=O)Nc1ccc2c(-c3ccccc3CNc3nc(O[C@H]4CCCNC4)nc4c(C(C)C)cnn34)nccc2c1 [Compound 159]
IC50 [1]: > 1000 nM | IC50 [2]: 1000 to 10000 nM | IC50 [3]: > 1000 nM | IC50 [4]: 100 to 1000 nM | CDK1/CDK7: Selectivity of CDK7 inhibition over CDK1 inhibition [4]: B (B indicates 50 < [fold] ≤ 500) | CDK2/CDK7: Selectivity of CDK7 inhibition over CDK2 inhibition [4]: B (B indicates 50 < [fold] ≤ 500) | CDK5/CDK7: Selectivity of CDK7 inhibition over CDK5 inhibition [4]: B (B indicates 50 < [fold] ≤ 500) | IC50 [5]: < 1000 nM | IC50 [6]: > 1000 nM

C=C(F)C(=O)Nc1ccc2c(-c3ccccc3CNc3nc(N[C@H]4CN5CCC4CC5)nc4c(C(C)C)cnn34)nccc2c1 [Compound 176]
IC50 [1]: > 1000 nM | IC50 [2]: < 1000 nM | IC50 [3]: > 1000 nM | IC50 [4]: < 100 nM | CDK1/CDK7: Selectivity of CDK7 inhibition over CDK1 inhibition [4]: A (A indicates [fold] > 500) | CDK2/CDK7: Selectivity of CDK7 inhibition over CDK2 inhibition [4]: A (A indicates [fold] > 500) | CDK5/CDK7: Selectivity of CDK7 inhibition over CDK5 inhibition [4]: A (A indicates [fold] > 500) | IC50 [5]: < 1000 nM | IC50 [6]: > 1000 nM

COC1CC2CCC(C1)N2c1nc(NCc2ccccc2-c2nccc3cc(NC(=O)/C=C/CN(C)C)ccc23)n2ncc(C(C)C)c2n1 (stereo not drawn) [Compound 103]
IC50 [1]: > 1000 nM | IC50 [2]: < 1000 nM | IC50 [3]: > 1000 nM | IC50 [4]: < 100 nM | CDK1/CDK7: Selectivity of CDK7 inhibition over CDK1 inhibition [4]: B (B indicates 50 < [fold] ≤ 500) | CDK2/CDK7: Selectivity of CDK7 inhibition over CDK2 inhibition [4]: B (B indicates 50 < [fold] ≤ 500) | CDK5/CDK7: Selectivity of CDK7 inhibition over CDK5 inhibition [4]: B (B indicates 50 < [fold] ≤ 500) | IC50 [5]: < 1000 nM | IC50 [6]: > 1000 nM

CC(C)c1cnn2c(NCc3ccccc3-c3nccc4cc(NC(=O)/C=C/CN(C)C)ccc34)nc(N3CCC(=O)CC3)nc12 [Compound 106]
IC50 [1]: > 1000 nM | IC50 [2]: < 1000 nM | IC50 [3]: > 1000 nM | IC50 [4]: 100 to 1000 nM | CDK1/CDK7: Selectivity of CDK7 inhibition over CDK1 inhibition [4]: C (C indicates [fold] ≤ 50) | CDK2/CDK7: Selectivity of CDK7 inhibition over CDK2 inhibition [4]: C (C indicates [fold] ≤ 50) | CDK5/CDK7: Selectivity of CDK7 inhibition over CDK5 inhibition [4]: C (C indicates [fold] ≤ 50) | IC50 [5]: < 1000 nM | IC50 [6]: > 1000 nM

CC(C)c1cnn2c(NCc3ccccc3-c3nccc4cc(NC(=O)/C=C/CN(C)C)ccc34)nc(N3CCC4(CCN(C)C4)CC3)nc12 [Compound 121]
IC50 [1]: > 1000 nM | IC50 [2]: < 1000 nM | IC50 [3]: > 1000 nM | IC50 [4]: < 100 nM | CDK1/CDK7: Selectivity of CDK7 inhibition over CDK1 inhibition [4]: B (B indicates 50 < [fold] ≤ 500) | CDK2/CDK7: Selectivity of CDK7 inhibition over CDK2 inhibition [4]: B (B indicates 50 < [fold] ≤ 500) | CDK5/CDK7: Selectivity of CDK7 inhibition over CDK5 inhibition [4]: B (B indicates 50 < [fold] ≤ 500) | IC50 [5]: < 1000 nM | IC50 [6]: > 1000 nM
